# Assay results as given in the NIST ThermoML archive (doi:10.1021/acs.jced.6b00455).
# Numbers after ± are expanded uncertainties.
# Experiment: mn = molality of the nth substance listed, in mol/kg
# Conditions: 101 kPa, Liquid, Alternating current cell with electrodes
compound,measurement,setting,value
C[N+](C)(C)CCO.O=C([O-])C(F)(F)C(F)(F)C(F)(F)C(F)(F)C(F)(F)C(F)(F)C(F)(F)F [(2-hydroxyethyl)trimethylammonium perfluorooctanoate] + O,electrical conductivity,"293.15 K, m1 = 7.6e-05",0.0005 ± 0.0001 S/m
same,electrical conductivity,"293.15 K, m1 = 0.000243",0.0015 ± 0.0001 S/m
same,electrical conductivity,"293.15 K, m1 = 0.000338",0.0021 ± 0.0001 S/m
same,electrical conductivity,"293.15 K, m1 = 0.000489",0.0031 ± 0.0002 S/m
same,electrical conductivity,"293.15 K, m1 = 0.000626",0.0039 ± 0.0002 S/m
same,electrical conductivity,"293.15 K, m1 = 0.000747",0.0046 ± 0.0003 S/m
same,electrical conductivity,"293.15 K, m1 = 0.000847",0.0053 ± 0.0003 S/m
same,electrical conductivity,"293.15 K, m1 = 0.000968",0.0061 ± 0.0004 S/m
same,electrical conductivity,"293.15 K, m1 = 0.001108",0.007 ± 0.0004 S/m
same,electrical conductivity,"293.15 K, m1 = 0.001301",0.008 ± 0.0005 S/m
same,electrical conductivity,"293.15 K, m1 = 0.001463",0.0091 ± 0.0005 S/m
same,electrical conductivity,"293.15 K, m1 = 0.001591",0.0098 ± 0.0006 S/m
same,electrical conductivity,"293.15 K, m1 = 0.001689",0.0106 ± 0.0006 S/m
same,electrical conductivity,"293.15 K, m1 = 0.00186",0.0114 ± 0.0007 S/m
same,electrical conductivity,"293.15 K, m1 = 0.001996",0.0123 ± 0.0007 S/m
same,electrical conductivity,"293.15 K, m1 = 0.002117",0.0129 ± 0.0008 S/m
same,electrical conductivity,"293.15 K, m1 = 0.00224",0.0138 ± 0.0008 S/m
same,electrical conductivity,"293.15 K, m1 = 0.002376",0.0145 ± 0.0009 S/m
same,electrical conductivity,"293.15 K, m1 = 0.002497",0.0153 ± 0.0009 S/m
same,electrical conductivity,"293.15 K, m1 = 0.00262",0.016 ± 0.001 S/m
same,electrical conductivity,"293.15 K, m1 = 0.002737",0.0167 ± 0.001 S/m
same,electrical conductivity,"293.15 K, m1 = 0.002945",0.018 ± 0.0011 S/m
same,electrical conductivity,"293.15 K, m1 = 0.00309",0.0188 ± 0.0011 S/m
same,electrical conductivity,"293.15 K, m1 = 0.003212",0.0196 ± 0.0012 S/m
same,electrical conductivity,"293.15 K, m1 = 0.003363",0.0202 ± 0.0012 S/m
same,electrical conductivity,"293.15 K, m1 = 0.003476",0.0208 ± 0.0012 S/m
same,electrical conductivity,"293.15 K, m1 = 0.003596",0.0216 ± 0.0013 S/m
same,electrical conductivity,"293.15 K, m1 = 0.003714",0.0222 ± 0.0013 S/m
same,electrical conductivity,"298.15 K, m1 = 6.2e-05",0.0004 ± 0.0001 S/m
same,electrical conductivity,"298.15 K, m1 = 0.000138",0.0009 ± 0.0001 S/m
same,electrical conductivity,"298.15 K, m1 = 0.00019",0.0013 ± 0.0001 S/m
same,electrical conductivity,"298.15 K, m1 = 0.000258",0.0018 ± 0.0001 S/m
same,electrical conductivity,"298.15 K, m1 = 0.000317",0.0022 ± 0.0001 S/m
same,electrical conductivity,"298.15 K, m1 = 0.000375",0.0026 ± 0.0002 S/m
same,electrical conductivity,"298.15 K, m1 = 0.000432",0.003 ± 0.0002 S/m
same,electrical conductivity,"298.15 K, m1 = 0.000488",0.0034 ± 0.0002 S/m
same,electrical conductivity,"298.15 K, m1 = 0.000547",0.0038 ± 0.0002 S/m
same,electrical conductivity,"298.15 K, m1 = 0.000619",0.0044 ± 0.0003 S/m
same,electrical conductivity,"298.15 K, m1 = 0.000704",0.0049 ± 0.0003 S/m
same,electrical conductivity,"298.15 K, m1 = 0.00077",0.0054 ± 0.0003 S/m
same,electrical conductivity,"298.15 K, m1 = 0.000828",0.006 ± 0.0004 S/m
same,electrical conductivity,"298.15 K, m1 = 0.00091",0.0066 ± 0.0004 S/m
same,electrical conductivity,"298.15 K, m1 = 0.000999",0.0072 ± 0.0004 S/m
same,electrical conductivity,"298.15 K, m1 = 0.001085",0.0078 ± 0.0005 S/m
same,electrical conductivity,"298.15 K, m1 = 0.001174",0.0084 ± 0.0005 S/m
same,electrical conductivity,"298.15 K, m1 = 0.001268",0.009 ± 0.0005 S/m
same,electrical conductivity,"298.15 K, m1 = 0.001353",0.0096 ± 0.0006 S/m
same,electrical conductivity,"298.15 K, m1 = 0.001452",0.0102 ± 0.0006 S/m
same,electrical conductivity,"298.15 K, m1 = 0.001544",0.0109 ± 0.0007 S/m
same,electrical conductivity,"298.15 K, m1 = 0.001654",0.0115 ± 0.0007 S/m
same,electrical conductivity,"298.15 K, m1 = 0.001755",0.0119 ± 0.0007 S/m
same,electrical conductivity,"298.15 K, m1 = 0.00185",0.0125 ± 0.0008 S/m
same,electrical conductivity,"298.15 K, m1 = 0.001933",0.013 ± 0.0008 S/m
same,electrical conductivity,"298.15 K, m1 = 0.002054",0.0138 ± 0.0008 S/m
same,electrical conductivity,"298.15 K, m1 = 0.002177",0.0146 ± 0.0009 S/m
same,electrical conductivity,"298.15 K, m1 = 0.002284",0.0152 ± 0.0009 S/m
same,electrical conductivity,"298.15 K, m1 = 0.00241",0.016 ± 0.001 S/m
same,electrical conductivity,"298.15 K, m1 = 0.002525",0.0167 ± 0.001 S/m
same,electrical conductivity,"298.15 K, m1 = 0.002643",0.0174 ± 0.001 S/m
same,electrical conductivity,"298.15 K, m1 = 0.002738",0.018 ± 0.0011 S/m
same,electrical conductivity,"298.15 K, m1 = 0.002963",0.0194 ± 0.0012 S/m
same,electrical conductivity,"298.15 K, m1 = 0.003158",0.0205 ± 0.0012 S/m
same,electrical conductivity,"298.15 K, m1 = 0.003285",0.0213 ± 0.0013 S/m
same,electrical conductivity,"298.15 K, m1 = 0.003418",0.0221 ± 0.0013 S/m
same,electrical conductivity,"298.15 K, m1 = 0.003542",0.0228 ± 0.0014 S/m
same,electrical conductivity,"298.15 K, m1 = 0.00364",0.0234 ± 0.0014 S/m
same,electrical conductivity,"298.15 K, m1 = 0.003768",0.0242 ± 0.0015 S/m
same,electrical conductivity,"298.15 K, m1 = 0.003952",0.0253 ± 0.0015 S/m
same,electrical conductivity,"298.15 K, m1 = 0.004493",0.0287 ± 0.0017 S/m
same,electrical conductivity,"298.15 K, m1 = 0.005611",0.0355 ± 0.0021 S/m
same,electrical conductivity,"298.15 K, m1 = 0.006271",0.0391 ± 0.0023 S/m
same,electrical conductivity,"298.15 K, m1 = 0.006873",0.0424 ± 0.0025 S/m
same,electrical conductivity,"298.15 K, m1 = 0.007507",0.0463 ± 0.0028 S/m
same,electrical conductivity,"303.15 K, m1 = 6.9e-05",0.0006 ± 0.0001 S/m
same,electrical conductivity,"303.15 K, m1 = 0.000173",0.0013 ± 0.0001 S/m
same,electrical conductivity,"303.15 K, m1 = 0.000265",0.002 ± 0.0001 S/m
same,electrical conductivity,"303.15 K, m1 = 0.000396",0.0031 ± 0.0002 S/m
same,electrical conductivity,"303.15 K, m1 = 0.000504",0.0039 ± 0.0002 S/m
same,electrical conductivity,"303.15 K, m1 = 0.000614",0.0048 ± 0.0003 S/m
same,electrical conductivity,"303.15 K, m1 = 0.000711",0.0055 ± 0.0003 S/m
same,electrical conductivity,"303.15 K, m1 = 0.000794",0.0061 ± 0.0004 S/m
same,electrical conductivity,"303.15 K, m1 = 0.000992",0.0077 ± 0.0005 S/m
same,electrical conductivity,"303.15 K, m1 = 0.001091",0.0084 ± 0.0005 S/m
same,electrical conductivity,"303.15 K, m1 = 0.001177",0.0091 ± 0.0005 S/m
same,electrical conductivity,"303.15 K, m1 = 0.00129",0.0099 ± 0.0006 S/m
same,electrical conductivity,"303.15 K, m1 = 0.001381",0.0105 ± 0.0006 S/m
same,electrical conductivity,"303.15 K, m1 = 0.001497",0.0113 ± 0.0007 S/m
same,electrical conductivity,"303.15 K, m1 = 0.001589",0.012 ± 0.0007 S/m
same,electrical conductivity,"303.15 K, m1 = 0.001698",0.0128 ± 0.0008 S/m
same,electrical conductivity,"303.15 K, m1 = 0.002339",0.0176 ± 0.0011 S/m
same,electrical conductivity,"303.15 K, m1 = 0.002615",0.0196 ± 0.0012 S/m
same,electrical conductivity,"303.15 K, m1 = 0.002737",0.0204 ± 0.0012 S/m
same,electrical conductivity,"303.15 K, m1 = 0.002834",0.021 ± 0.0013 S/m
same,electrical conductivity,"303.15 K, m1 = 0.002921",0.0216 ± 0.0013 S/m
same,electrical conductivity,"303.15 K, m1 = 0.003011",0.0222 ± 0.0013 S/m
same,electrical conductivity,"303.15 K, m1 = 0.003103",0.0229 ± 0.0014 S/m
same,electrical conductivity,"303.15 K, m1 = 0.003204",0.0237 ± 0.0014 S/m
same,electrical conductivity,"303.15 K, m1 = 0.003323",0.0244 ± 0.0015 S/m
same,electrical conductivity,"303.15 K, m1 = 0.003408",0.025 ± 0.0015 S/m
